Measurements: patent US20240139104A1, “MICELLE RELEASING THERMOSENSITIVE HYDROGELS AS A THERAPEUTIC DELIVERY SYSTEM” (GEORGIA TECH RESEARCH CORPORATION, priority 2021, published 2024)

Tests used:
B16F10-OVA tumor = experiment: GSNO (i.t.) and aCTLA-4 (i.p.) therapy without hydrogel, dual tumor model; assay type: in vivo, mice; details: GSNO 480 μg kg^−1 i.t. day 7; aCTLA-4 100 μg mouse^−1 i.p. day 8, 11, 14; compared to saline
Method: In brief, 10^5 B16F10-OVA (30 μL) was inoculated in left dorsal skin on day 0 and in right dorsal skin on day 4 to establish dual tumor model. 30 μL of saline or GSNO (480 μg kg ^−1) was administered to the left tumor on day 7 and 30 μL of aCTLA-4 (100 μg mouse^−1) was administered intraperitoneally on day 8, 11, 14.

immune cells in blood = experiment: Immune cell profiles in blood (flow cytometry) after GSNO and aCTLA-4; assay type: in vivo, mice; details: CD4+T, CD8+T, NKT populations
Method: Immune cells in blood were collected and profiled to delineate the systemic immunity in the combinational use of GSNO and aCTLA-4 (FIG. 29). In brief, ACK lysis buffer was treated to the blood taken on day 9 to harvest immune cells in blood by removing red blood cells. All cells were stored on ice<2 h prior to use. Cells for flow cytometry were prepared by six steps with PBS, FACS buffer, or permeabilization buffer (eBioscience™ Foxp3/Transcription Factor Staining Buffer Set, Invitrogen™) wash; 2.4G2 staining on ice for 5 min, Zombie Aqua fixable viability dye staining at room temperature for 30 min, […]-MHCI-PE tetramer (NIH Tetramer Core Facility, Atlanta, Georgia) staining on ice for 15 min, antibody mixtures staining on ice for 30 min, fixing and permeabilizing with Foxp3 Fixation/Permeabilization working solution (eBioscience™ Foxp3/Transcription Factor Staining Buffer Set, Invitrogen™) on ice for 60 min, and FoxP3 staining on ice for 75 min. LSR Fortessa flow cytometry and flowJo were employed to analyze and profiles the stained cells.

[1] = Absorption/fluorescence and photostability of IR780 exposed to daylight; assay type: physicochemical; details: 10% ethanol
[2] = system: B16F10-OVA tumor and TdLNs; details: 15 μL of 0.016 mg mL^−1 IR780 intratumoral, IVIS 24 h after injection

SMILES | therapeutic effects (1º and 2º tumor growth) (B16F10-OVA tumor) | systemic activation and expansion of T cell, NK and NKT in blood (immune cells in blood) | time to complete photobleaching [1] [h] | IR780 signal in injected tumor tissues and TdLNs [2]
N[C@@H](CCC(=O)N[C@@H](CSN=O)C(=O)NCC(=O)O)C(=O)O [GSNO, S-nitrosoglutathione] | did not lead to any therapeutic effects | failed to induce systemic activation and expansion of T cell, NK and NKT response | – | –
CCCN1C(=CC=C2CCCC(C=CC3=[N+](CCC)c4ccccc4C3(C)C)=C2Cl)C(C)(C)c2ccccc21.[I-] [IR780, IR780 iodide] | – | – | ≤ 24 | cleared quickly from the injected tumor tissues and exhibited negligible signals in the TdLNs
